Where two headings read alike, the source gives them in different places.
Tests used:
Format in all cases: cell-based
hAR [1] = biological target: T1, hAR (Homo sapiens, UniProt P10275); assay: co-transfection assay, AR agonist, CV-1 cells; details: for AR Agonist CV-1 Cells Efficacy (%): hAR in CV-1 cells, relative to maximum LUC production by reference agonist
T1 construct: expressed in transfected cells; host or cells: CV-1 cells (African green monkey kidney fibroblasts)
T1 sequence (P10275 1-920): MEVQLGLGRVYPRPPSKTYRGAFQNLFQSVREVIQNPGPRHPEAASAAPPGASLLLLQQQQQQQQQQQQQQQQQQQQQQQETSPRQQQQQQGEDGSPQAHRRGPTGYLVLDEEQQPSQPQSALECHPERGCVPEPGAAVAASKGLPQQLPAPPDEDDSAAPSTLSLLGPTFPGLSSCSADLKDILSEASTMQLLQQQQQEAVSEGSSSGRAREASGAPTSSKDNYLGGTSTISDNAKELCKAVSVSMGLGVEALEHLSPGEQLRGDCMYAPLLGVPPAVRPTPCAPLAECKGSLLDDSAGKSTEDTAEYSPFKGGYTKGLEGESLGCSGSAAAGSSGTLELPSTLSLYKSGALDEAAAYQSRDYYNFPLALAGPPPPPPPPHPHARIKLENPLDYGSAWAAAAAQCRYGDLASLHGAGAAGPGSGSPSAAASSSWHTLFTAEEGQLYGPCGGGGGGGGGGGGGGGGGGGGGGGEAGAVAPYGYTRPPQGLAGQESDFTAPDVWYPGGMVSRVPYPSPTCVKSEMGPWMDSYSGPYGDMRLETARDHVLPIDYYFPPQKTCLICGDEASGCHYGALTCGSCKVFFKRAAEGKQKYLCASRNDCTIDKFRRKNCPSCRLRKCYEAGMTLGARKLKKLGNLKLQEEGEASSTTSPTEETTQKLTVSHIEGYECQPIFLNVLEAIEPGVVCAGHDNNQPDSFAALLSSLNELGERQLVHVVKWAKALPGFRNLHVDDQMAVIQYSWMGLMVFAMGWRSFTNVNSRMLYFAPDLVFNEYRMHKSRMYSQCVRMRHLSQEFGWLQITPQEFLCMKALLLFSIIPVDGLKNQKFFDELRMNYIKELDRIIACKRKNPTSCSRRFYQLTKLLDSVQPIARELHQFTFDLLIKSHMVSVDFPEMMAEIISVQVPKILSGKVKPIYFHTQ

GR = biological target: T2, GR (Homo sapiens, UniProt P04150); assay: co-transfection assay, GR antagonist
T2 construct: expressed in transfected cells; host or cells: CV-1 cells
T2 sequence (P04150 1-777): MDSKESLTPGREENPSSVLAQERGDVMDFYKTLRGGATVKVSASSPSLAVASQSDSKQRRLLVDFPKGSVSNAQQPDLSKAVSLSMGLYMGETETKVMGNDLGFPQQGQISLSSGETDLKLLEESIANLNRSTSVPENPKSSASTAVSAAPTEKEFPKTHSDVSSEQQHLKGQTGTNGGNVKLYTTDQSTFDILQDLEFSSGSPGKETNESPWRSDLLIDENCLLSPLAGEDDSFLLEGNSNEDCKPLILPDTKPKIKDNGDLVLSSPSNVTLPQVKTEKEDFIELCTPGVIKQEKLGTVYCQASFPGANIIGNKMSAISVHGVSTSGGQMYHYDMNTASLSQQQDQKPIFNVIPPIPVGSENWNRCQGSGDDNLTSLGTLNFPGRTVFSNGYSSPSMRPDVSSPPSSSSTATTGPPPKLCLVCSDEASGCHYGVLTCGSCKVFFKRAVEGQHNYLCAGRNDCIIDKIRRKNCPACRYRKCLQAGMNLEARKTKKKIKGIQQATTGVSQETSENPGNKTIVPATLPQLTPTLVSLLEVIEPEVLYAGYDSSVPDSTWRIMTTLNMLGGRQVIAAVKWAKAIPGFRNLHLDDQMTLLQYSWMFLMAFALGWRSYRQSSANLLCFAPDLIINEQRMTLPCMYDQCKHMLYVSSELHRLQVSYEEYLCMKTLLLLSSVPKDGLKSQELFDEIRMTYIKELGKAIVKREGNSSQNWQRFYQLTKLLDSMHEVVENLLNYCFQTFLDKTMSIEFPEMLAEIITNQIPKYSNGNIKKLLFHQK
Procedure: (§1) CV-1 cells (African green monkey kidney fibroblasts) were cultured in the presence of Dulbecco's Modified Eagle Medium (DMEM) supplemented with 10% charcoal resin-stripped fetal bovine serum (CH-FBS) then transferred to 96-well microtiter plates one day prior to transfection.
(§2) Three to four replicates were used for each sample.
(§3) After 40 hours, the cells were washed with PBS, lysed with a Triton X-100-based buffer and assayed for LUC and β-Gal activities using a luminometer or spectrophotometer, respectively. For each replicate, the normalized response (NR) was calculated as: […]

hAR [2] = biological target: T1, hAR; assay: co-transfection assay, AR antagonist (in presence of DHT), CV-1 cells; details: for AR Antagonist CV-1 Cells Efficacy (%): hAR in CV-1 cells, maximal inhibition, DHT at EC50
ER = biological target: T3, ER (Homo sapiens, UniProt P03372); assay: co-transfection assay, ER antagonist
T3 construct: expressed in transfected cells; host or cells: CV-1 cells
T3 sequence (P03372 whole entry): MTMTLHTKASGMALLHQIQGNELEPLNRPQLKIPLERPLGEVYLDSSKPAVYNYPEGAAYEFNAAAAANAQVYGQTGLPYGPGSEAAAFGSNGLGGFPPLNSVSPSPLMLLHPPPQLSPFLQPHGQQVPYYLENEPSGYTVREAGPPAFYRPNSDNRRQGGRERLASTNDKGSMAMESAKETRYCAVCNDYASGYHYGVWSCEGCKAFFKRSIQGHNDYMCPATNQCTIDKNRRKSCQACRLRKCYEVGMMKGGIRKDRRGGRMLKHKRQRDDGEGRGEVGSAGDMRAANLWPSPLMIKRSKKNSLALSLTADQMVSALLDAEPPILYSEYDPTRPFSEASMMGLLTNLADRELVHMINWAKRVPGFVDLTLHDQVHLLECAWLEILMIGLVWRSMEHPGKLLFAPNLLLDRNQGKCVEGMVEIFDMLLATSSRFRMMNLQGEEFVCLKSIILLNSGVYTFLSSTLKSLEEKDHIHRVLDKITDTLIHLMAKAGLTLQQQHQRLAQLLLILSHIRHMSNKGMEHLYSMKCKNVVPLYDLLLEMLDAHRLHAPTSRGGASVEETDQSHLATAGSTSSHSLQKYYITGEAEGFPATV
Procedure: as §1, §2, §3

PR = biological target: T4, PR (Homo sapiens, UniProt P06401); assay: co-transfection assay, PR antagonist (in presence of progesterone)
T4 construct: expressed in transfected cells; host or cells: CV-1 cells
T4 sequence (P06401 1-933): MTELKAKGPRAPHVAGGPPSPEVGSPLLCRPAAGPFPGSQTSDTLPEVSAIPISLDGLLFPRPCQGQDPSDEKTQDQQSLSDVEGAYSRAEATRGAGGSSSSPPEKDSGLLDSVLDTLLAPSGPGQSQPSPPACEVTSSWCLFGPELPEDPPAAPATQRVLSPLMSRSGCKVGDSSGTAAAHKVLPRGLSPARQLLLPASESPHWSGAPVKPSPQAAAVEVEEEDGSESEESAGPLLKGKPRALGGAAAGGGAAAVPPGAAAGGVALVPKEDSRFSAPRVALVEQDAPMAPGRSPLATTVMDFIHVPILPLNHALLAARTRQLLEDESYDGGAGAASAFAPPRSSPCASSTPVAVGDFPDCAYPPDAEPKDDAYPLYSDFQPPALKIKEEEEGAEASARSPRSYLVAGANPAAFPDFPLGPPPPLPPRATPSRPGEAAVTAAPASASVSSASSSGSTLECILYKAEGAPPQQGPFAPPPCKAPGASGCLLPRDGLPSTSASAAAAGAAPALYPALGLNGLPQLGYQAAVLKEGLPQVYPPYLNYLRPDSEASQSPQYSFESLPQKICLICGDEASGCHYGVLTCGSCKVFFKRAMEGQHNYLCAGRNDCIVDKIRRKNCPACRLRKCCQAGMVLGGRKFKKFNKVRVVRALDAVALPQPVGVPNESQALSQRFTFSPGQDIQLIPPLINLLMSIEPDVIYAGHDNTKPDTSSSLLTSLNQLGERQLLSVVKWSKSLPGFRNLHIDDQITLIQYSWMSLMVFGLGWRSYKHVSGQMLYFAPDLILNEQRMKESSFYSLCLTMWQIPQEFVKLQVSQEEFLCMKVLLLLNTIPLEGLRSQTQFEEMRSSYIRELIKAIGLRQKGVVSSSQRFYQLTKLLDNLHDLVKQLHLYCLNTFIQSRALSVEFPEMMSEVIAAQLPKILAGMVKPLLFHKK
Procedure: as §1, §2, §3

[3] = read-out: AR Potency Agon, Table 2

SMILES | EC50 (hAR [1]) [µM] | AR Agonist CV-1 Cells Efficacy (%) (hAR [1]) | EC50 (hAR [1]; [3]) [µM] | IC50 (GR) [µM] | IC50 (hAR [2]) [µM] | AR Antagonist CV-1 Cells Efficacy (%) (hAR [2]) | IC50 (ER) [µM] | IC50 (PR) [µM]
CN1CCOc2cc3c(cc21)c(C(F)(F)F)cc(=O)n3C [Compound 102, 1,2,3,6-Tetrahydro-1,6-dimethyl-9-(trifluoromethyl)-7H-[1,4]oxazino[3,2-g]quinolin-7-one] | > 10 | na^1 (na = not active (i.e. efficacy of < 20 and potency of > 10,000 nM for the cotransfection assay, and Ki > 1000 nM for the binding assay)) | > 10 | 3.2 | 0.022 | 58 | 5.9 | 4.1
CCN1CCOc2cc3c(cc21)c(C(F)(F)F)cc(=O)n3C [Compound 104, 1-Ethyl-1,2,3,6-tetrahydro-6-methyl-9-(trifluoromethyl)-7H-[1,4]oxazino[3,2-g]quinolin-7-one] | > 10 | na (na = not active (i.e. efficacy of < 20 and potency of > 10,000 nM for the cotransfection assay, and Ki > 1000 nM for the binding assay)) | > 10 | 0.83 | 0.026 | 68 | > 10 | 2
O=c1cc(C(F)(F)F)c2cc3c(cc2[nH]1)OCCN3CC(F)(F)F [Compound 105, 1,2,3,6-Tetrahydro-1-(2,2,2-trifluoroethyl)-9-(trifluoromethyl)-7H-[1,4]oxazino[3,2-g]quinolin-7-one] |  |  |  | 6.7 |  |  | > 10 | 3
O=C1COc2cc3[nH]c(=O)cc(C(F)(F)F)c3cc2N1CC(F)(F)F [Compound 137, 1,6-Dihydro-1-(2,2,2-trifluoroethyl)-9-(trifluoromethyl)-3H-[1,4]oxazino[3,2-g]-quinolin-2,7-dione] | > 10 | na (na = not active (i.e. efficacy of < 20 and potency of > 10,000 nM for the cotransfection assay, and Ki > 1000 nM for the binding assay)) | > 10 | > 10 | 0.018 | 84 | > 10 | > 10
